# Reference: PMC7782499, “Progerinin, an optimized progerin-lamin A binding inhibitor, ameliorates premature senescence phenotypes of Hutchinson-Gilford progeria syndrome” (Communications Biology, 2021)
# Where “and” joins values, the source holds several entries; their conditions need not be identical. Identical values can stand only once.
# What was measured:
# [1] = Plasma protein binding, human; format: in vitro ADME; conditions: human, plasma
# Description: At pre-set time-points, blood concentration of JH4 was determined by LC-MS/MS analysis[22],[23]. Other chemicals were also tested using similar protocol. In vitro ADME studies (plasma protein binding, CYP inhibition, microsomal stability, plasma stability, and hERG inhibition) were performed by New Drug Development Center (Daegu, Korea) using standard protocols[24],[25].
# [2] = Liver microsomal stability, rat; format: in vitro ADME; conditions: liver microsomes, read-out: Liver microsomal stability (% remaining during 30min)
# Description: For PK analysis, 5 mg/kg of JH4 in 10% DMSO, 5% […] solution were intravenously injected and 10 mg/kg of JH4 in 10% NMP and 90% PEG400 solution were orally delivered. At pre-set time-points, blood concentration of JH4 was determined by LC-MS/MS analysis[22],[23]. Other chemicals were also tested using similar protocol. In vitro ADME studies (plasma protein binding, CYP inhibition, microsomal stability, plasma stability, and hERG inhibition) were performed by New Drug Development Center (Daegu, Korea) using standard protocols[24],[25].
# [3] = tested on: HGPS cells; assay: Ki67-positive cells in HGPS cells; format: cell-based, human; conditions: for Ki67 positive cells/total cells: AG03199; for Ki67 positive cells/total cells (ratio): AG11498, 3 days
# Description: A. In vivo pharmacokinetic (PK) analysis of JH010 (performed in rats). […] B Effect of SLC-D011 on human ERG (hERG). […] C In vivo pharmacokinetic analysis of SLD-D011. […] HEK293 cells transiently transfected with GFP-PG vectors were treated with SLC-D011 for 24 hr (n = 3 independent experiment; two-tailed Student’s t test). […] “Con” means dimethyl sulfoxide (DMSO)-treated control.
# Cells were cultured on coverslips, washed with PBS, fixed with 4% paraformaldehyde (PFA) for 30 min at RT, and then permeabilized with 0.2% Triton X-100 at RT for 5 min. After treatment with blocking solution (anti-Human antibody diluted 1:400 in PBS) for 1 h, cells were incubated with anti-lamin A/C (1:400), anti-progerin (1:100), Ki67 (1:200), and anti-H3K9me3 (1:200) in blocking buffer overnight at 4 °C. Finally, cells were incubated with fluorescein isothiocyanate and rhodamine-conjugated secondary antibodies at 4 °C for 7 h. Nuclei were stained with DAPI (4, 6-diamidino-2-phenylindole) at RT for 10 min. After cells were washed three times with PBS, coverslips were mounted with mounting solution (H-5501; Vector Laboratories, Burlingame, CA, USA). Immunofluorescence signal was detected with a fluorescence microscopy (Zeiss and Logos).
# HGPS cells were treated with SLC-D011 at a low concentration ( from 10
# nM to 5μM) for 3 days. C. […]
# […] DAPI indicated DNA.
# [4] = tested on: Sprague-Dawley rats; assay: Single oral gavage dose toxicity study in SD rats; format: in vivo; conditions: for Mortality: Day 1-7; for External Gross Observation: No gross findings (animals of 3) / Internal Gross Observation: No gross findings (animals of 3): Sprague-Dawley, 7 day
# Text: The protocol and procedures involving the care and use of animals in this study was reviewed and approved by IACUC of QuBEST BIO prior to conduct (Approval no.: QBSIACUC-A18122). During the study, the care and use of animals will be conducted in accordance with all applicable guidelines of Animal Welfare Act. Eleven specific pathogen-gree Sprague-Dawley rats (~6 weeks old) were obtained from SAMTAKO Ltd. (Osan, Korea) and nine rats were used for the study. […] Food was withheld for a further 3–4 h after dosing. Each dose was based on the most recent body weight of each animal and the dose volume was […]. The dosing day was designated as Day 1. All animals were observed twice daily for mortality and moribundity during the study. A clinical observation was performed for all animals at the time of dosing and approximately 1, 2, and 4 h post-dose on dosing day, and once daily during 7-day observation period. Observations were included, but are not limited to, changes in the skin, fur, eyes and mucous membrane; respiratory, circulatory, autonomic and central nervous system function; somatomotor activity and behavior patterns. Individual body weights were measured for all animals on the day of animal receipt, randomization, prior to dosing start (Day 1) and study period (Days 4 and 7). Those animals survived on completion of the 7-day observation period were weighed body weight prior to necropsy and CO2 inhalation anesthesia and exsanguinated from the abdominal aorta. In order to avoid autolytic change, a complete gross pathology examination of the carcass was performed as soon as possible after euthanasia of all animals. Necropsy was consisted of an external examination, including identification of all clinically recorded lesions, as well as a detailed internal examination. Toxicity studies were performed by QuBEST BIO Co., Ltd (Yongin, Korea).
# The objective of this study was to investigate the potential acute toxicity or approximate lethal dose of SLC-D011 following a single oral gavage administration to the SD rats.
# The study group is detailed in Text Table 1.
# Text Table 1. Study Group
# The following parameters were evaluated: mortality (twice daily), clinical signs (1, 2, and 4 ho urs post-dose on dosing day, and once daily during 7-day period), body weights (on Days 1, 4 and 7), and […]
# Mortality and Clinical Observation […]
# The oral gavage route was selected since it is the intended route of administration in humans. […]
# The study groups and dose level were assigned as below after consultation with the Sponsor. […]
# After overnight fasting (approximately 16 hours, food but not water should be withheld overnight), test article formulations were dosed using a plastic disposable feeding needle attached to a plastic disposable syringe. Food was withheld for a further 3~4 hours after dosing. Each dose was based on the most recent body weight of each animal and the dose volume was 10 mL/kg. The dosing day was designated as study Day 1.
# All animals were observed twice daily [once (am) on weekend and holiday] for mortality and moribundity during the study.
# A clinical observation was performed for all animals at the time of dosing and approximately 1, 2 and 4 hours post-dose on dosing day, and once daily during 7-day observation period.
# [5] = tested on: HGPS patients; conditions: trial without placebo; cited from earlier work
# [6] = female, rat, in vivo, 500 mg/kg
smiles,measurement,setting,value
CC1(C)Oc2cc3oc(=O)ccc3cc2C[C@@H]1OC/C=C/c1ccccc1 [SLC-D011],fraction unbound,[1],0.001
same,remaining at 0.5 h,[2],17.4%
same,Ki67 positive cells/total cells,"[3]; 10nM, Ave",0.1497 ratio
same,Ki67 positive cells/total cells,"[3]; 10nM, individual replicate",0.0625 ratio and 0.2083 ratio and 0.1538 ratio and 0.1646 ratio and 0.1594 ratio
same,Ki67 positive cells/total cells,"[3]; 50nM, Ave",0.369 ratio
same,Ki67 positive cells/total cells,"[3]; 50nM, individual replicate",0.2857 ratio and 0.375 ratio and 0.4444 ratio and 0.5 ratio and 0.24 ratio
same,Ki67 positive cells/total cells,"[3]; 100nM, Ave",0.418 ratio
same,Ki67 positive cells/total cells,"[3]; 100nM, individual replicate",0.275 ratio and 0.3214 ratio and 0.4286 ratio and 0.44 ratio and 0.625 ratio
same,Ki67 positive cells/total cells,"[3]; 500nM, Ave",0.45 ratio
same,Ki67 positive cells/total cells,"[3]; 500nM, individual replicate",0.3889 ratio and 0.5 ratio and 0.5714 ratio and 0.3684 ratio and 0.4211 ratio
same,Ki67 positive cells/total cells,"[3]; 1μM, Ave",0.4556 ratio
same,Ki67 positive cells/total cells,"[3]; 1μM, individual replicate",0.4146 ratio and 0.4286 ratio and 0.5 ratio and 0.4792 ratio
same,Ki67 positive cells/total cells,"[3]; 2μM, Ave",0.479 ratio
same,Ki67 positive cells/total cells,"[3]; 2μM, individual replicate",0.5 ratio (2×) and 0.44 ratio and 0.4762 ratio
same,Ki67 positive cells/total cells,"[3]; 5μM, Ave",0.4663 ratio
same,Ki67 positive cells/total cells,"[3]; 5μM, individual replicate",0.3571 ratio and 0.2857 ratio and 0.75 ratio and 0.5909 ratio and 0.3478 ratio
same,Ki67 positive cells/total cells (ratio),[3]; 10nM,0.25 and 0.2222 and 0.2143 and 0.3
same,Ki67 positive cells/total cells (ratio),"[3]; 10nM, mean",0.2466
same,Ki67 positive cells/total cells (ratio),[3]; 50nM,0.2857 and 0.3333 and 0.375 and 0.2
same,Ki67 positive cells/total cells (ratio),"[3]; 50nM, mean",0.2985
same,Ki67 positive cells/total cells (ratio),[3]; 100nM,0.3333 and 0.3125 and 0.4 and 0.375
same,Ki67 positive cells/total cells (ratio),"[3]; 100nM, mean",0.3552
same,Ki67 positive cells/total cells (ratio),[3]; 500nM,0.375 and 0.4444 and 0.4286
same,Ki67 positive cells/total cells (ratio),"[3]; 500nM, mean",0.4058
same,Ki67 positive cells/total cells (ratio),[3]; 1μM,0.3333 and 0.4 and 0.6 and 0.375
same,Ki67 positive cells/total cells (ratio),"[3]; 1μM, mean",0.4271
same,Ki67 positive cells/total cells (ratio),[3]; 2μM,0.4 and 0.375 and 0.4167
same,Ki67 positive cells/total cells (ratio),"[3]; 2μM, mean",0.3979
same,Concentration enough for inducing Ki67 expression,[3]; HGPS cells,100 nM
same,Mortality,"[4]; female rats, 500 mg/kg",0/3
same,Mortality,"[4]; female rats, 2,000 mg/kg",0/3
same,External Gross Observation: No gross findings (animals of 3),[4]; [6],3
same,Internal Gross Observation: No gross findings (animals of 3),[4]; [6],3
same,Mortality,"[4]; male rats, 500 mg/kg",0/3
same,Mortality,"[4]; male rats, 2,000 mg/kg",0/3
same,External Gross Observation: No gross findings (animals of 3),"[4]; male, rat, in vivo, 500 mg/kg",3
same,Internal Gross Observation: No gross findings (animals of 3),"[4]; male, rat, in vivo, 500 mg/kg",3
same,Clinical Observation,"[4]; rat, in vivo, 500 mg/kg",Appears Normal
same,Tolerability,"[4]; single oral gavage at 500 and 2,000 mg/kg",well tolerated
same,Approximate lethal dose (ALD),"[4]; single oral gavage, both sexes","> 2,000 mg/kg"
"NC(=O)N1CCC(CC(=O)N2CCC([C@H]3c4ncc(Br)cc4CCc4cc(Cl)cc(Br)c43)CC2)CC1 [lonafarnib, reference compound]",Extension of life span,[5],~ 2 years
